# Assay results from PubChem BioAssay (NCI).
#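 At the GI50, growth is halved. Definition used: TGI = concentration required for complete inhibition of growth.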
# Key:
# Assay in all cases: growth of human tumour cells (NCI), 384-well format
# [1] = tested on: NCI-H322M lung
# [2] = tested on: OVCAR-8 ovarian
# [3] = tested on: CAKI-1 renal
# [4] = tested on: OVCAR-4 ovarian
# [5] = tested on: NCI-H460 NSCLC
# [6] = tested on: UACC-62 melanoma
# [7] = tested on: ACHN renal
# [8] = tested on: NCI/ADR-RES ovarian
# [9] = tested on: SR leukemia
# [10] = tested on: HOP-92 NSCLC
# [11] = tested on: COLO 205 colon
# [12] = tested on: 786-0 renal
# [13] = tested on: IGROV1 ovarian
# [14] = tested on: HCT-116 colon
# [15] = tested on: A498 renal
# [16] = tested on: SK-MEL-28 melanoma
# [17] = tested on: UACC-257 melanoma
# [18] = tested on: LOX IMVI melanoma
# [19] = tested on: PC-3 prostate
# [20] = tested on: SF-268 CNS
# [21] = tested on: SW-620 colon
# [22] = tested on: U251 glioblastoma
# [23] = tested on: NCI-H226 lung
# [24] = tested on: MDA-MB-435 melanoma
# [25] = tested on: EKVX NSCLC
# [26] = tested on: MCF7 breast
# [27] = tested on: MDA-MB-231 breast
# [28] = tested on: DU-145 prostate
# [29] = tested on: UO-31 renal
# [30] = tested on: NCI-H522 lung
# [31] = tested on: RXF 393 renal
# [32] = tested on: RPMI-8226 leukemia
# [33] = tested on: SNB-19 CNS
# [34] = tested on: SF-539 CNS
# [35] = tested on: BT-549 breast
# [36] = tested on: HS 578T breast
# [37] = tested on: MALME-3M melanoma
# [38] = tested on: SNB-75 CNS
# [39] = tested on: CCRF-CEM leukemia
# [40] = tested on: KM12 colon
# [41] = tested on: HT29 colon
# [42] = tested on: M14 melanoma
# [43] = tested on: OVCAR-5 ovarian
# [44] = tested on: TK-10 renal
# [45] = tested on: SK-OV-3 ovarian
# [46] = tested on: HOP-62 NSCLC
# [47] = tested on: SF-295 CNS
# [48] = tested on: A549 NSCLC
# [49] = tested on: SN12C renal
# [50] = tested on: NCI-H23 lung
# [51] = tested on: HCT-15 colon
# [52] = tested on: OVCAR-3 ovarian
# [53] = tested on: HL-60(TB) leukemia
# [54] = tested on: MDA-MB-468 breast
# [55] = tested on: T-47D breast
# [56] = tested on: SK-MEL-5 melanoma
# [57] = tested on: MOLT-4 leukemia
# [58] = tested on: HCC-2998 colon
smiles,measurement,setting,value
Nc1cccc2c1C(=O)N(C1CCC(=O)NC1=O)C2=O (stereo not given),GI50,[1],> 100 µM
same,TGI,[1],> 100 µM
same,GI50,[2],> 100 µM
same,TGI,[2],> 100 µM
same,GI50,[3],> 100 µM
same,TGI,[3],> 100 µM
same,GI50,[4],> 100 µM
same,TGI,[4],> 100 µM
same,GI50,[5],> 100 µM
same,TGI,[5],> 100 µM
same,GI50,[6],> 100 µM
same,TGI,[6],> 100 µM
same,GI50,[7],> 100 µM
same,TGI,[7],> 100 µM
same,GI50,[8],> 100 µM
same,TGI,[8],> 100 µM
same,GI50,[9],> 100 µM
same,TGI,[9],> 100 µM
same,GI50,[10],> 100 µM
same,TGI,[10],> 100 µM
same,GI50,[11],> 100 µM
same,TGI,[11],> 100 µM
same,GI50,[12],> 100 µM
same,TGI,[12],> 100 µM
same,GI50,[13],> 100 µM
same,TGI,[13],> 100 µM
same,GI50,[14],> 100 µM
same,TGI,[14],> 100 µM
same,GI50,[15],> 100 µM
same,TGI,[15],> 100 µM
same,GI50,[16],> 100 µM
same,TGI,[16],> 100 µM
same,GI50,[17],> 100 µM
same,TGI,[17],> 100 µM
same,TGI,[18],> 100 µM
same,GI50,[19],> 100 µM
same,TGI,[19],> 100 µM
same,GI50,[20],> 100 µM
same,TGI,[20],> 100 µM
same,GI50,[21],> 100 µM
same,TGI,[21],> 100 µM
same,GI50,[22],> 100 µM
same,TGI,[22],> 100 µM
same,GI50,[23],> 100 µM
same,TGI,[23],> 100 µM
same,GI50,[24],> 100 µM
same,TGI,[24],> 100 µM
same,GI50,[25],> 100 µM
same,TGI,[25],> 100 µM
same,GI50,[26],> 100 µM
same,TGI,[26],> 100 µM
same,GI50,[27],> 100 µM
same,TGI,[27],> 100 µM
same,GI50,[28],> 100 µM
same,TGI,[28],> 100 µM
same,GI50,[29],> 100 µM
same,TGI,[29],> 100 µM
same,GI50,[30],> 100 µM
same,TGI,[30],> 100 µM
same,GI50,[31],> 100 µM
same,TGI,[31],> 100 µM
same,GI50,[32],22.9 µM
same,TGI,[32],> 100 µM
same,GI50,[33],> 100 µM
same,TGI,[33],> 100 µM
same,GI50,[34],> 100 µM
same,TGI,[34],> 100 µM
same,GI50,[35],> 100 µM
same,TGI,[35],> 100 µM
same,GI50,[36],> 100 µM
same,TGI,[36],> 100 µM
same,GI50,[37],> 100 µM
same,TGI,[37],> 100 µM
same,GI50,[38],> 100 µM
same,TGI,[38],> 100 µM
same,GI50,[39],> 100 µM
same,TGI,[39],> 100 µM
same,GI50,[40],> 100 µM
same,TGI,[40],> 100 µM
same,GI50,[41],> 100 µM
same,TGI,[41],> 100 µM
same,GI50,[42],> 100 µM
same,TGI,[42],> 100 µM
same,GI50,[43],> 100 µM
same,TGI,[43],> 100 µM
same,GI50,[44],> 100 µM
same,TGI,[44],> 100 µM
same,GI50,[45],> 100 µM
same,TGI,[45],> 100 µM
same,GI50,[46],> 100 µM
same,TGI,[46],> 100 µM
same,GI50,[47],> 100 µM
same,TGI,[47],> 100 µM
same,GI50,[48],> 100 µM
same,TGI,[48],> 100 µM
same,GI50,[49],> 100 µM
same,TGI,[49],> 100 µM
same,GI50,[50],> 100 µM
same,TGI,[50],> 100 µM
same,GI50,[51],> 100 µM
same,TGI,[51],> 100 µM
same,GI50,[52],> 100 µM
same,TGI,[52],> 100 µM
same,GI50,[53],> 100 µM
same,TGI,[53],> 100 µM
same,GI50,[54],> 100 µM
same,TGI,[54],> 100 µM
same,GI50,[55],> 100 µM
same,TGI,[55],> 100 µM
same,GI50,[56],> 100 µM
same,TGI,[56],> 100 µM
same,GI50,[57],> 100 µM
same,TGI,[57],> 100 µM
same,GI50,[58],> 100 µM
same,TGI,[58],> 100 µM
